Consider twelve compounds from US20210139467A1 (GLAXOSMITHKLINE INTELLECTUAL PROPERTY DEVELOPMENT LIMITED, priority 2017, published 2021).

The structures appear in SMILES notation.

Test [1] addresses T1, IDO1 (Homo sapiens, UniProt P14902). Put plainly: IDO1 HeLa RapidFire MS Assay. The arrangement: stimulated with human interferon-γ (IFN-γ). The settings on record: HeLa cells stimulated with IFN-γ; kynurenine detected by mass spectrometry; 2 days; read-out: IDO1 HeLa pIC50 (converted). The format is cell-based. Here is the method: IDO1 HeLa RapidFire MS Assay
Compounds of the present invention were tested via high-throughput cellular assays utilizing detection of kynurenine via mass spectrometry and cytotoxicity as end-points. For the mass spectrometry and cytotoxicity assays, human epithelial HeLa cells (CCL-2; ATCC®, Manassas, Va.) were stimulated with human interferon-γ (IFN-γ) (Sigma-Aldrich Corporation, St. Louis, Mo.) to induce the expression of indoleamine 2, 3-dioxygenase (IDO1). Compounds with IDO1 inhibitory properties decreased the amount of kynurenine produced by the cells via the tryptophan catabolic pathway. Cellular toxicity due to the effect of compound treatment was measured using CellTiter-Glo® reagent (CTG) (Promega Corporation, Madison, Wis.), which is based on luminescent detection of ATP, an indicator of metabolically active cells. […]
Following incubation, the 384-well plates were removed from the incubator and allowed to equilibrate to room temperature for 30 minutes. […] After a twenty minute incubation at room temperature, luminescence was read on an EnVision® Multilabel Reader (PerkinElmer Inc., Waltham, Mass.). […]

The target of test [2] is T1, IDO1. In words: IDO1 PBMC RapidFire MS Assay. The arrangement: stimulated with human interferon-γ (IFN-γ); host or cells: human PBMC stimulated with IFN-gamma and LPS. Type of test: cell-based. To be noted: human PBMC stimulated with IFN-γ and LPS; kynurenine detected by mass spectrometry; 2 days; read-out: IDO1 PBMC pIC50 (converted). Here is the method: IDO1 PBMC RapidFire MS Assay
Compounds of the present invention were tested via high-throughput cellular assays utilizing detection of kynurenine via mass spectrometry and cytotoxicity as end-points. For the mass spectrometry and cytotoxicity assays, human peripheral blood mononuclear cells (PBMC) (PB003F; AllCells®, Alameda, Calif.) were stimulated with human interferon-γ (IFN-γ) (Sigma-Aldrich Corporation, St. Louis, Mo.) and lipopolysaccharide from Salmonella minnesota (LPS) (Invivogen, San Diego, Calif.) to induce the expression of indoleamine 2, 3-dioxygenase (IDO1). Compounds with IDO1 inhibitory properties decreased the amount of kynurenine produced by the cells via the tryptophan catabolic pathway. Cellular toxicity due to the effect of compound treatment was measured using CellTiter-Glo® reagent (CTG) (Promega Corporation, Madison, Wis.), which is based on luminescent detection of ATP, an indicator of metabolically active cells.
In preparation for the assays, test compounds were serially diluted 3-fold in DMSO from a typical top concentration of 1 mM or 5 mM and plated at 0.5 μL in 384-well, polystyrene, clear bottom, tissue culture treated plates with lids (Greiner Bio-One, Kremsmünster, Austria) to generate 11-point dose response curves. Low control wells (0% kynurenine or 100% cytotoxicity) contained either 0.5 μL of DMSO in the presence of unstimulated (−IFN-γ/-LPS) PBMCs for the mass spectrometry assay or 0.5 μL of DMSO in the absence of cells for the cytotoxicity assay, and high control wells (100% kynurenine or 0% cytotoxicity) contained 0.5 μL of DMSO in the presence of stimulated (+IFN-γ/+LPS) PBMCs for both the mass spectrometry and cytotoxicity assays.
Frozen stocks of PBMCs were washed and recovered in RPMI 1640 medium (Thermo Fisher Scientific, Inc., Waltham, Mass.) supplemented with 10% v/v heat-inactivated fetal bovine serum (FBS) (Thermo Fisher Scientific, Inc., Waltham, Mass.), and 1× penicillin-streptomycin antibiotic solution (Thermo Fisher Scientific, Inc., Waltham, Mass.). The cells were diluted to 1,000,000 cells/mL in the supplemented RPMI 1640 medium. 50 μL of either the cell suspension, for the mass spectrometry assay, or medium alone, for the cytotoxicity assay, were added to the low control wells, on the previously prepared 384-well compound plates, resulting in 50,000 cells/well or 0 cells/well respectively. IFN-γ and LPS were added to the remaining cell suspension at final concentrations of 100 ng/ml and 50 ng/ml respectively, and 50 μL of the stimulated cells were added to all remaining wells on the 384-well compound plates. The plates, with lids, were then placed in a 37° C., 5% CO2 humidified incubator for 2 days.
Following incubation, the 384-well plates were removed from the incubator and allowed to equilibrate to room temperature for 30 minutes. For the cytotoxicity assay, CellTiter-Glo® was prepared according to the manufacturer's instructions, and 40 μL were added to each plate well. After a twenty minute incubation at room temperature, luminescence was read on an EnVision® Multilabel Reader (PerkinElmer Inc., Waltham, Mass.). For the mass spectrometry assay, 10 μL of supernatant from each well of the compound-treated plates were added to 40 μL of acetonitrile, containing 10 μM of an internal standard for normalization, in 384-well, polypropylene, V-bottom plates (Greiner Bio-One, Kremsmünster, Austria) to extract the organic analytes. Following centrifugation at 2000 rpm for 10 minutes, 10 μL from each well of the acetonitrile extraction plates were added to 90 μL of sterile, distilled H2O in 384-well, polypropylene, V-bottom plates for analysis of kynurenine and the internal standard on the RapidFire 300 (Agilent Technologies, Santa Clara, Calif.) and 4000 QTRAP MS (SCIEX, Framingham, Mass.). MS data were integrated using Agilent Technologies' RapidFire Integrator software, and data were normalized for analysis as a ratio of kynurenine to the internal standard. […]

The next test deals with PAN02 pancreatic cells. The settings on record: cited from earlier work.
For test [3], the system named is conversion of T cells into CD4+FoxP3+ Tregs. The settings on record: co-culture of DCs and naive CD4+CD25- T cells; cited from earlier work.

T1 sequence (P14902 whole entry): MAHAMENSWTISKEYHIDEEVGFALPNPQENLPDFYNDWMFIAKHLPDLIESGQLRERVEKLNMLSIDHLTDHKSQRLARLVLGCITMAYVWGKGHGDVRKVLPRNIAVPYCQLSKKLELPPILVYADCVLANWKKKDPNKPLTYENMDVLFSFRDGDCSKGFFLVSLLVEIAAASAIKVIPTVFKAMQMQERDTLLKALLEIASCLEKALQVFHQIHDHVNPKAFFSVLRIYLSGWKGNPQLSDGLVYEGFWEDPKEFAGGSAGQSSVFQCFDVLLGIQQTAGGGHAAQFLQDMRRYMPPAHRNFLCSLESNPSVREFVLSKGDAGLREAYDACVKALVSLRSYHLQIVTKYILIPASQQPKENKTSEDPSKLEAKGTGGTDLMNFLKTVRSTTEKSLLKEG

On to `CC(C)CN(c1ccc(C2(C(=O)NS(C)(=O)=O)CC2)nc1Nc1ccc(Cl)cn1)C1CCOCC1` [Example 16, 1-(6-((5-chloropyridin-2-yl)amino)-5-(isobutyl(tetrahydro-2H-pyran-4-yl)amino)pyridin-2-yl)-N-(methylsulfonyl)cyclopropane-1-carboxamide], for which the IC50 at IDO1 [1] is 10 nM.
Same read-out and setting: then `CC(C)CN(c1ccc(C2(C(=O)O)CC2)nc1Nc1ccc(Cl)cn1)C1CCOCC1` [Example 15, 1-(6-((5-chloropyridin-2-yl)amino)-5-(isobutyl(tetrahydro-2H-pyran-4-yl)amino)pyridin-2-yl)cyclopropane-1-carboxylic acid], with 158 nM.
In the case of `CC(C)CN(c1ccc(C(C)(C)C(=O)O)nc1Nc1ccc(Cl)cn1)C1CCOCC1` [Example 17, 2-(6-((5-chloropyridin-2-yl)amino)-5-(isobutyl(tetrahydro-2H-pyran-4-yl)amino)pyridin-2-yl)-2-methylpropanoic acid], the IC50 at IDO1 [2] is 6.31 nM.
The same measure, in the same setting: then `CC(C)CN(c1ncc(C(C)(C)C(=O)NS(=O)(=O)C(F)(F)F)cc1Nc1ccc(Cl)cn1)C1CCOCC1` [Example 8, 2-(5-((5-chloropyridin-2-yl)amino)-6-(isobutyl(tetrahydro-2H-pyran-4-yl)amino)pyridin-3-yl)-2-methyl-N-((trifluoromethyl)sulfonyl)propanamide], with 20 nM; and `CC(C)CN(CC(C)C)c1ccc(C(C)(C)C(=O)O)cc1Nc1nc(C(F)(F)F)ns1` [Example 13, 2-(4-(diisobutylamino)-3-((3-(trifluoromethyl)-1,2,4-thiadiazol-5-yl)amino)phenyl)-2-methylpropanoic acid], with 12.6 nM.
In the case of `NS(=O)(=O)NCCNc1nonc1C(=NO)Nc1ccc(F)c(Br)c1` [INCB204360, epacadostat], the “inhibition of tumor growth” value with PAN02 pancreatic cells (PAN02 syngeneic model, immunocompetent mice, orally dosed) was “significant dose-dependent inhibition of tumor growth”. The “effect on tumor growth” value in the test on PAN02 pancreatic cells (same tumor implanted in immune-deficient mice) is “without effect”. For the same compound, in test [3], the “conversion of T cells into CD4+FoxP3+ Tregs” value was “blocked the conversion”.
Turning to `CC(C)CN(c1ccc(C2(C(=O)NS(C)(=O)=O)CC2)cc1Nc1ccc(Cl)cn1)C1CCOCC1` [Example 4, 1-(3-((5-chloropyridin-2-yl)amino)-4-(isobutyl(tetrahydro-2H-pyran-4-yl)amino)phenyl)-N-(methylsulfonyl)cyclopropane-1-carboxamide], the IC50 at IDO1 [2] was 0.794 nM.
On the same count and under the same terms, then `CC(C)CN(c1ccc(C(C)(C)C(=O)O)cc1Nc1ccc(Cl)cn1)C1CCOCC1` [Example 1, 2-(3-((5-chloropyridin-2-yl)amino)-4-(isobutyl(tetrahydro-2H-pyran-4-yl)amino)phenyl)-2-methylpropanoic acid], with 3.16 nM.
Same read-out and setting: then `CC(C)CN(c1ccc(C(C)(C)C(=O)NS(C)(=O)=O)nc1Nc1ccc(Cl)cn1)C1CCOCC1` [Example 18, 2-(6-((5-chloropyridin-2-yl)amino)-5-(isobutyl(tetrahydro-2H-pyran-4-yl)amino)pyridin-2-yl)-2-methyl-N-(methylsulfonyl)propanamide], with 3.16 nM; and `CC(C)CN(c1ncc(C2(C(=O)O)CC2)cc1Nc1ccc(Cl)cn1)C1CCOCC1` [Example 9, 1-(5-((5-chloropyridin-2-yl)amino)-6-(isobutyl(tetrahydro-2H-pyran-4-yl)amino)pyridin-3-yl)cyclopropane-1-carboxylic acid], with 7.94 nM; and `CC(C)CN(c1ccc(C(C)(C)C(=O)NS(C)(=O)=O)cc1Nc1ccc(Cl)cn1)C1CCOCC1` [Example 2, 2-(3-((5-chloropyridin-2-yl)amino)-4-(isobutyl(tetrahydro-2H-pyran-4-yl)amino)phenyl)-2-methyl-N-(methylsulfonyl)propanamide], with 1.58 nM.
For `CC(C)CN(c1ccc(C(C)(C)C(=O)NS(=O)(=O)C(F)(F)F)cc1Nc1ccc(Cl)cn1)C1CCOCC1` [Example 3, 2-(3-((5-chloropyridin-2-yl)amino)-4-(isobutyl(tetrahydro-2H-pyran-4-yl)amino)phenyl)-2-methyl-N-((trifluoromethyl)sulfonyl)propanamide], at IDO1 [2], the IC50 is 20 nM.
